In patent publication US11230535B2, “CFTR regulators and methods of use thereof” (THE REGENTS OF THE UNIVERSITY OF CALIFORNIA, priority 2015, dated 2022):
“Also recorded” adds a separate entry of the source.

System: BALB/c mice after lacrimal gland excision
Experiment: Lacrimal gland excision (LGE) mouse model of aqueous-deficient dry eye
Assay type: in vivo
Description: To assess corneal epithelial disruption, 5 μL of lissamine green (LG) dye (1%) was applied to the ocular surface of isofluorane-anesthetized mice. Photographs of the eye were taken using a Nikon Digital camera adapted to an Olympus Zoom Stereo Microscope (Olympus, Center Valley, Pa., USA). Each corneal quadrant was scored on a 3-point scale by one blinded, trained observer, with the extent of staining in each quadrant classified as: 0, no staining; 1, sporadic (involving <25% of the total surface) staining; grade 2, diffuse punctate staining (25-75%); and grade 3, coalesced punctate staining (≥75%). The total grade is reported as the sum of scores from all four quadrants, ranging from 0 to 12.
A lacrimal gland excision (LGE) model of aqueous-deficient dry eye was adapted from a reported method (30). The extraorbital lacrimal gland was exposed on each side of wild-type female BALB/c mice (7-8 weeks of age) by 3-mm linear skin incisions. Lacrimal ducts were cauterized and the entire gland was removed bilaterally, avoiding facial vessels and nerves. Incisions were each closed with a single interrupted 6-0 silk suture. Orbital lacrimal tissue remained functional. Eyes with reduced corneal sensation (<5% of mice studied), as identified from neurotrophic corneal ulcers within 1 day of LGE, were excluded. Mice were randomized to receive either treatment (in both eyes) with CFTRact-K089 (0.1 nmol) or vehicle. Mice were treated three times daily (8 AM, 2 PM and 8 PM) for 2 weeks starting on Day 1 after LGE. Tear secretion and LG staining were performed immediately prior to, and one hour after the initial dose on day 4, 10 and 14 after LGE.
Lissamine green staining. […] Each corneal quadrant was scored on a 3-point scale by one blinded, trained observer, with the extent of staining in each quadrant classified as: 0, no staining; 1, sporadic (involving <25% of the total surface) staining; grade 2, diffuse punctate staining (25-75%); and grade 3, coalesced punctate staining (≥75%). […]

[1] = 0.1 nmol topical three times daily

With CCN(CC)c1nc(Nc2ccccc2)nc(OC(C(F)(F)F)C(F)(F)F)n1 [CFTRact-K089, N,N-Diethyl-6-[(1,1,1,3,3,3-hexafluoropropan-2-yl)oxy]-N′-phenyl-1,3,5-triazine-2,4-diamine] the LG score change (0.1 nmol three times daily, by Day 14, 12-point scale) was −0.6±0.6, the “corneal / ocular surface epithelial disruption after LGE” value [1] was “fully prevented the corneal epithelial disruption; also recorded: prevented ocular surface epithelial disruption at all time points” and the “tear secretion / tear volume after LGE” value [1] was “restored tear secretion to basal levels; also recorded: maintained basal tear volume”.
